Laboratory results reported in patent publication US9040715B2 (priority 2008, dated 2015).
Converted amounts (≈) assume the structure as drawn.

Legend:
[1] = system: Saccharomyces cerevisiae (YPH501); test: Anti-fungal/anti-yeast activity: MIC50 (broth microdilution) and MFC; assay type: cell-based; conditions: for MFC / MIC: Saccharomyces cerevisiae; for Activity (fungicidal/fungistatic) / Ratio MFC/MIC: Saccharomyces cerevisiae (YPH501); for MIC: read-out: MIC-50
[2] = system: Huh7 cells; test: Neutral red uptake assay (cytotoxicity); assay type: cell-based, human
Excerpt: The neutral red uptake assay is a cytotoxicity test that is based on the ability of viable cells to incorporate and bind the supra-vital dye neutral red in the lysosomes. This weakly cationic dye penetrates cell membranes by non-ionic passive diffusion and concentrates in the lysosomes, where it binds by electrostatic hydrophobic bonds to anionic and phosphate groups of the lysosomal matrix. The dye is then extracted from the viable cells using an acidified ethanol solution, and the absorbance of the solubilized dye is read. When the cell dies or the pH gradient is reduced, the dye is not retained and consequently, the amount of retained dye is proportional to the number of viable cells. Most primary cells and cell lines can be used for this method. The HepG2 and Huh7, two human hepatoma cell lines, were used for this study. The cells were seeded in 96-well tissue culture plates and treated for 48 hours with the compounds. The plates were then incubated for 2 hours with a medium containing neutral red. The cells were subsequently washed, the dye was extracted in each well, and the absorbance was read using a spectrophotometer (FIG. 3 and Table 11).

[3] = system: Candidia parapsilosis; test: Anti-fungal/anti-yeast activity: MIC50 (broth microdilution) and MFC; assay type: cell-based; conditions: for Activity (fungicidal/fungistatic) / Ratio MFC/MIC: Candidia parapsilosis; for MIC: read-out: MIC-50
Experimental: (§1) Fluconazole, an ergosterol inhibitor, and the beta-1,3-glucan inhibitor micafungin served as controls (See Tables 1-8).
(§2) The minimum inhibitory concentrations resulting in 50% growth inhibition (MIC50) of […] Candida species (C. albicans, C. tropicalis and C. glabrata, C. lusitaniae, C. parapsilosis, and C. apicola) as well as Aspergillus fumigatus to a set of novel synthetic compounds was determined in accordance with the guidelines in CLSI document M27-A2 (Clinical and Laboratory Standards Institute; Wayne, Pa.). The total volume of cells and drug was 100 μL per microtiter well, and each drug was diluted in RPMI to achieve final concentrations of 0.2-100 μg/ml. Uninoculated cultures were used as a reference standard. Stock inoculum suspensions were prepared from 24 hour cultures on YPD (yeast extract/peptone/dextrose) media at 30° C. For MIC determinations, an inoculum of 1.0×10^3 cells of Candidia and 2.0×10^3 cells of Aspergillus per well were used, and cells in diluted drugs were prepared in RPMI-1640 medium. MICs were determined both visually and spectrophotometrically at 24 hours and 48 h at 550 nm using a micro plate reader. The MIC50 endpoint was measured as the lowest drug concentration resulting in a reduction of growth of 50% or more compared with growth of the control.
(§3) The minimum fungicidal concentrations (MFCs) were determined for each drug-isolate-medium combination as follows. After 48 hours of incubation, 100 μL of each drug-isolate-medium combination (2 plates) was subcultured onto YPD plates (100 μL of solution was spread over the YPD plate). […] The plates were then incubated at 30° C. for 48 hours.
(§4) The in vitro fungicidal activities (MFCs) were determined for each drug-isolate-medium combination as follows. After 48 hours of incubation, 10 μL each drug-isolate-medium combination was spotted onto YPD plates (10 μL of each well is spotted sequentially with positive and negative control wells). […] The plates were then incubated at 30° C. for 48 hours.

[4] = system: Aspergillus fumigatus; test: as above; assay type: cell-based
Experimental: as §1, §2, §3, §4

[5] = system: Candida tropicalis; test: as above; assay type: cell-based; conditions: for MIC: read-out: MIC-50
Experimental: as §1, §2, §3, §4

[6] = system: Candida glabrata; test: as above; assay type: cell-based; conditions: for Activity (fungicidal/fungistatic) / Ratio MFC/MIC: Candida glabrata; for MFC / MIC: Nakaseomyces glabratus; for MIC: read-out: MIC-50
Experimental: as §1, §2, §3, §4

[7] = system: Candida albicans (CAF-2); test: as above; assay type: cell-based; conditions: for MIC: read-out: MIC-50
Experimental: as §1, §2, §3, §4

[8] = system: Candida apicola; test: as above; assay type: cell-based; conditions: for Activity (fungicidal/fungistatic) / MIC-50 / Ratio MFC/MIC: Candida apicola; for MFC: Starmerella apicola
Experimental: as §1, §2, §3, §4

[9] = system: Candida lusitaniae; test: as above; assay type: cell-based; conditions: for Activity (fungicidal/fungistatic) / Ratio MFC/MIC: Candida lusitaniae; for MFC / MIC: Clavispora lusitaniae; for MIC: read-out: MIC-50
Experimental: as §1, §2, §3, §4

[10] = system: Huh7 or HepG2 cell line; test: MTT assay (cytotoxicity); assay type: cell-based, human; conditions: 24 hours and 48 hours
Experimental: The MTT assay is a colorimetric assay that measures the reduction of yellow 3-(4,5-dimethylhiazol-2-yl)-2,5-diphenyl tetrazolium bromide (MTT) by mitochondrial succinate dehydrogenase. The MTT enters the cells and passes into the mitochondria where it is reduced to an insoluble, dark purple, formazan product. The cells are then solubilized with an organic solvent (e.g., isopropanol) and the released, solubilized formazan reagent is measured spectrophotometrically. Since reduction of MTT can only occur in metabolically active cells, the level of activity is a measure of the viability of the cells.
Cells of the Huh7 or HepG2 cell line were seeded in a 96 well plate. The plate was incubated overnight at 37° C. in a humidified incubator, 5% CO2. The test compounds were added to the plate. Different concentrations of drug were tested in triplicate along with a negative control. The final volume was adjusted to 100 μl per well. The plate was incubated overnight at 37° C. in a humidified incubator, 5% CO2. After 24 hours and 48 hours, MTT reagent (5 mg/ml, 10 μl/100 μl per well of the 96 well plate) was added and incubated at 37° C. for 3 hours. After 3 hours, 100 μl of the DMSO solution was added to each well and the plate was rocked at room temperature for 1 hour. The plate was then read on a plate reader at […].

[11] = system: C. albicans Mutants; test: MIC50 in C. albicans mutant strains; assay type: cell-based; conditions: Candida albicans
Experimental: as §2
The MIC50 of Compounds I-1, I-2, and I-5 in several mutant strains of Candida albicans, including fluconazole resistant clinical strains, was determined according to the methods described in Example 1 (see Table 9). The activity of Compound I-1 against fluconazole resistant strains was further explored (see Table 10). In Table 10, Strain #1 is a fluconazole sensitive Candida albicans strain; Strain #17 is a fluconazole resistant Candida albicans strain; C. albicans CS#01 is a first clinical strain; C. albicans CS#02 is a second clinical strain.

O=C(Cn1sc2ccccc2c1=O)Nc1ccccc1Oc1ccccc1 [Compound I-2]
MFC [1]: 3.2 µg/mL (≈ 8.5 µM) | Activity (fungicidal/fungistatic) [1]: fungicidal (An MFC/MIC ratio of less than four indicates that the compound is fungicidal) | Ratio MFC/MIC [1]: 2 | MIC [1]: 1.6 µg/mL (≈ 4.25 µM) | Percentage Viability ([2]; 3.3 μg/mL (approx 1X MIC)): >100% | Percentage Viability ([2]; 10 μg/mL (approx 3X MIC)): >100% | Percentage Viability ([2]; 33 μg/mL (approx 10X MIC)): >100% | Percentage Viability ([2]; 100 μg/mL (approx 30X MIC)): 75% | MFC [3]: 3.2 µg/mL | Activity (fungicidal/fungistatic) [3]: fungicidal (An MFC/MIC ratio of less than four indicates that the compound is fungicidal) | Ratio MFC/MIC [3]: 2 | MIC [3]: 1.6 µg/mL | Activity (fungicidal/fungistatic) [4]: fungistatic (an MFC/MIC ratio of greater than four indicates that the compound is fungistatic) | MFC [4]: 50 µg/mL | MIC50 [4]: 12.5 µg/mL | Ratio MFC/MIC [4]: 4 | Activity (fungicidal/fungistatic) [5]: fungicidal (An MFC/MIC ratio of less than four indicates that the compound is fungicidal) | MFC [5]: 3.2 µg/mL | Ratio MFC/MIC [5]: 1 | MIC [5]: 3.2 µg/mL | Activity (fungicidal/fungistatic) [6]: fungicidal (An MFC/MIC ratio of less than four indicates that the compound is fungicidal) | Ratio MFC/MIC [6]: 2 | MFC [6]: 3.2 µg/mL | MIC [6]: 1.6 µg/mL | Activity (fungicidal/fungistatic) [7]: fungicidal (An MFC/MIC ratio of less than four indicates that the compound is fungicidal) | MFC [7]: 3.2 µg/mL | Ratio MFC/MIC [7]: 1 | MIC [7]: 3.2 µg/mL | Activity (fungicidal/fungistatic) [8]: fungicidal (An MFC/MIC ratio of less than four indicates that the compound is fungicidal) | MIC-50 [8]: 6.4 µg/mL | Ratio MFC/MIC [8]: 1 | MFC [8]: 6.4 µg/mL | Activity (fungicidal/fungistatic) [9]: fungicidal (An MFC/MIC ratio of less than four indicates that the compound is fungicidal) | Ratio MFC/MIC [9]: 2 | MFC [9]: 3.2 µg/mL | MIC [9]: 1.6 µg/mL | Toxicity to mammalian cell lines (MTT assay) [10]: minimally toxic | MIC50 ([11]; C. albicans strain CAF-2): 3 µg/mL (≈ 7.97 µM) | MIC50 ([11]; C. albicans strain CHK11): 12.5 µg/mL (≈ 33.2 µM) | MIC50 ([11]; C. albicans strain CHK21): > 100 µg/mL | MIC50 ([11]; C. albicans strain CHK23): 25 µg/mL (≈ 66.4 µM) | MIC50 ([11]; C. albicans strain GOA31): 3 µg/mL (≈ 7.97 µM) | MIC50 ([11]; C. albicans strain GOA32): 3 µg/mL (≈ 7.97 µM)

O=C(Cn1sc2ccccc2c1=O)NNC(=O)c1cccc(Cl)c1 [Compound I-5]
MFC [1]: 3 µg/mL (≈ 8.29 µM) | Activity (fungicidal/fungistatic) [1]: fungicidal (An MFC/MIC ratio of less than four indicates that the compound is fungicidal) | Ratio MFC/MIC [1]: 1 | MIC [1]: 3 µg/mL (≈ 8.29 µM) | Percentage Viability ([2]; 3.3 μg/mL (approx 1X MIC)): >100% | Percentage Viability ([2]; 10 μg/mL (approx 3X MIC)): >100% | Percentage Viability ([2]; 33 μg/mL (approx 10X MIC)): >100% | Percentage Viability ([2]; 100 μg/mL (approx 30X MIC)): 92% | MFC [3]: 12.5 µg/mL | Activity (fungicidal/fungistatic) [3]: fungicidal (An MFC/MIC ratio of less than four indicates that the compound is fungicidal) | Ratio MFC/MIC [3]: 2 | MIC [3]: 6.4 µg/mL | Activity (fungicidal/fungistatic) [5]: fungicidal (An MFC/MIC ratio of less than four indicates that the compound is fungicidal) | MFC [5]: 12.5 µg/mL | Ratio MFC/MIC [5]: 2 | MIC [5]: 6.4 µg/mL | Activity (fungicidal/fungistatic) [6]: fungicidal (An MFC/MIC ratio of less than four indicates that the compound is fungicidal) | Ratio MFC/MIC [6]: 1 | MFC [6]: 6.4 µg/mL | MIC [6]: 6.4 µg/mL | Activity (fungicidal/fungistatic) [7]: fungicidal (An MFC/MIC ratio of less than four indicates that the compound is fungicidal) | MFC [7]: 12.5 µg/mL | Ratio MFC/MIC [7]: 2 | MIC [7]: 6.4 µg/mL | Activity (fungicidal/fungistatic) [8]: fungicidal (An MFC/MIC ratio of less than four indicates that the compound is fungicidal) | MIC-50 [8]: 6.4 µg/mL | Ratio MFC/MIC [8]: 2 | MFC [8]: 12.5 µg/mL | Activity (fungicidal/fungistatic) [9]: fungicidal (An MFC/MIC ratio of less than four indicates that the compound is fungicidal) | Ratio MFC/MIC [9]: 2 | MFC [9]: 6.4 µg/mL | MIC [9]: 3.2 µg/mL | Toxicity to mammalian cell lines (MTT assay) [10]: minimally toxic | MIC50 ([11]; C. albicans strain CAF-2): 6 µg/mL (≈ 16.6 µM) | MIC50 ([11]; C. albicans strain CHK11): 6 µg/mL (≈ 16.6 µM) | MIC50 ([11]; C. albicans strain CHK21): 6 µg/mL (≈ 16.6 µM) | MIC50 ([11]; C. albicans strain CHK23): 6 µg/mL (≈ 16.6 µM) | MIC50 ([11]; C. albicans strain GOA31): 6 µg/mL (≈ 16.6 µM) | MIC50 ([11]; C. albicans strain GOA32): 6 µg/mL (≈ 16.6 µM)
